# According to US10807958B2, “1,4-bis(3-aminopropyl)piperazine derivative and its use” (INSERM (Institut National de la Sante et de la Recherche …, priority 2015, dated 2020):
# Key:
# Thy-Tau22 mice = test: Immunohistochemical measurement of tau pathology (NFT burden) in hippocampal CA1; type: in vivo, mouse; conditions: Thy-Tau22, 0.5 mg/kg vs untreated, FIG. 5
# From the text: Wild-type C57BL/6J animals of 3 months were purchased at Charles Rivers Laboratories (France) and were allow to acclimate in the animal facility for at least one week before any treatment. Thy-Tau22 transgenic colonies (C57BL/6J genetic background) were obtained by crossing heterozygous Thy-Tau22 males with C57BL/6 WT females. […] In this model, a progressive development of NFT is observed in the hippocampus and amygdala, which parallels behavioral impairments (Schindowski et al., 2006). Furthermorever, in the hippocampus, hyper- and abnormally phosphorylated Tau species accumulate within the somato-dendritic area (Schindowski et al., 2006). For animal treatment, animals were randomly distributed and the compound of Formula I was given in the drinking water at final concentration of 0.5 or 1 mg/kg. Drinking bottles were changed once per week, volume consumption was measured along the treatment period. Food consumption and body weight were assessed. […] Quantification of labeled neurons was achieved using the NIH-Image J software and expressed in arbitrary units (A.U). The burden of NFT in the hippocampal CA1 was investigated by immunohistochemistry and quantification. […]
# [1] = system: Tau proteins of Thy-Tau22 animals (hippocampus); test: 1D SDS-PAGE and Western-blot of Tau expression, catabolites and phosphorylation in hippocampus; type: in vivo, mouse; conditions: treated vs untreated, FIG. 6
# From the text: Wild-type C57BL/6J animals of 3 months were purchased at Charles Rivers Laboratories (France) and were allow to acclimate in the animal facility for at least one week before any treatment. Thy-Tau22 transgenic colonies (C57BL/6J genetic background) were obtained by crossing heterozygous Thy-Tau22 males with C57BL/6 WT females. […] In this model, a progressive development of NFT is observed in the hippocampus and amygdala, which parallels behavioral impairments (Schindowski et al., 2006). Furthermorever, in the hippocampus, hyper- and abnormally phosphorylated Tau species accumulate within the somato-dendritic area (Schindowski et al., 2006).
# For animal treatment, animals were randomly distributed and the compound of Formula I was given in the drinking water at final concentration of 0.5 or 1 mg/kg. Drinking bottles were changed once per week, volume consumption was measured along the treatment period. Food consumption and body weight were assessed. In wild-type animals the pilot study of drug treatment was performed for one month to establish the innocuousness of the treatment with the compound of Formula I. This was based on the physiological, social and behavioural assessments. Thy-Tau22 males were treated for 4 months starting at 3 month old. All protocols were approved by the local ethics committee (n^∘342012, CEEA).
# After behavioral assessment, blood was collected in 1.5 mL polypropylene tubes (Eppendorf, France), mice were sacrificed by cervical dislocation to avoid any modifications instrumental to anesthesia (Lefreche et al. 2012). Hippocampi and cortices were dissected and snap frozen in 1.5 mL tubes (Eppendorf). Tissue was homogenized in Tris-HCl buffer (10 mM pH 7.4) containing 320 mM sucrose, protease inhibitors (Complete mini EDTA-free, Roche) sonicated and spun at 12,000×g for 10 min at 4° C. The supernatant was recovered, protein concentration was achieved using the BCA Protein quantification assay kit (Pierce) according to the manufacturer instruction. The supernatant was further processed for biochemical analyses or kept at −80° C. For 1D or 2D gels, the same lysis buffer was used. Thus, equal amount protein in Tris buffer were added with a solution containing 7M urea, 2M thiourée with 2% SDS and sonicated at 60 Hz 30 pulses.
# For the western-blot analysis of Tau proteins, SDS-PAGE was performed according to the manufacturer's instructions using Bis-Tris 4-12% gradient acrylamide gel (NuPage® Bis-Tris PreCast 12 wells, Life Technologies). The apparent molecular weights were calibrated using the molecular weight markers (Novex and Magic Marks, Life Technologies). Electrophoresis was performed under a continuous tension of 100V/per gel for 1 h. Proteins were reversibly stained with Ponceau Red to check the quality of the efficacy of protein transfer. For western-blotting, the membranes were blocked in 25 mM Tris-HCl pH 8.0, 150 mM NaCl, 0.1% Tween-20 (v/v) (TBS-T) and 5% (w/v) of skimmed milk (TBS-M) for 30 min and they were incubated overnight at 4° C. the primary antibody. The nitrocellulose membrane is rinsed three times by gentle shaking in TBS-T during 10 min each. […]
# Brain proteins (of hippocampus) from untreated and Compound I⋅HCl treated thy-tau22 animals were resolved by 1D SDS-PAGE and Tau proteins were labeled with Pan-Tau antibodies (N-ter, C-ter). Catabolites detected with these antibodies are indicated as f-Nter and f-Cter. […]
# [2] = ratio phospho-epitope/total hTau
smiles,measurement,setting,value
"CC(C)CN(CCCN1CCN(CCCNc2c3c(nc4ccccc24)CCCC3)CC1)CC(C)C.Cl [Compound I⋅HCl, N-[3-(4-{3-[Bis(2-methylpropyl)amino]propyl}piperazin-1-yl)propyl]-1,2,3,4-tetrahydroacridin-9-amine hydrochloride]",AT8 immunostaining,Thy-Tau22 mice,no significant differences
same,average surface of staining after AT100 staining,Thy-Tau22 mice,significantly reduced
same,Tau C-terminal catabolites products at 43 kDa,[1],significantly increased
same,Tau N-terminal catabolites,[1],significantly decreased
same,"Tau phosphorylation at other phospho-sites (pSer199, pSer262, pSer422, Tau-1)",[1],not significantly modified
same,Tau phosphorylation at phospho-site 396,[1]; [2],significant reduction
same,Tau phosphorylation at phospho-site 404,[1]; [2],significant reduction
